These results are taken from article PMC2993768 (Journal of natural products, 2010).

The subject of assay [1] is other serotonin receptors. Description: PDSP primary binding assay at 10 μM, other serotonin receptors. Further details: species or system human. As to conditions: from Ki at 5-HT2B vs no significant binding at 10 μM.
Assay [2] has as its system mouse dorsal root ganglion (DRG) neurons. As to conditions: purified compounds, 20 μg / mL, K+-stimulated.
The conditions of assay [3]: micromolar range; cited from earlier work.

In the case of `C[C@@H]1SC(c2ccccc2O)=N[C@@H]1CO` [Compound 6, Pulicatin A], the “selectivity for 5-HT2B over related receptors” value in assay [1] is “at least 20 fold”. In assay [2], the “effect on Ca2+ influx in DRG cells” value is given as “decreased Ca^2+ influx”. Take `NC(=O)C1CSC(c2ccccc2O)=N1` (centres unmarked) [Compound 3, pulicatin G]: in assay [2], the “effect on Ca2+ influx in DRG cells” value is given as “observably increased Ca^2+ influx”. For `O=C(O)c1csc(-c2ccccc2O)n1` [Aeruginoic acid], the antihypotensive activity entry in assay [3] is listed as “exhibited antihypotensive activity”.

Turning to `OC[C@@H]1CSC(c2ccccc2O)=N1` [Compound 1, aerugine], in assay [2], the “effect on Ca2+ influx in DRG cells” value was “observably increased Ca^2+ influx”.
